Results as given in patent US20200031778A1, “NOVEL 5-SUBSTITUTED IMIDAZOLYLMETHYL DERIVATIVES” (Bayer CropScience Aktiengesellschaft, priority 2016, published 2020).

Experiment: Log P by HPLC on reversed phase columns (EEC directive 79/831 Annex V.A8; methods [a], [b], [c])
Format: physicochemical
In short: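 Log P derived from retention times, interpolated linearly between bracketing straight-chain alkan-2-ones (3–16 carbons) of known Log P. Eluents ran acetonitrile 10% to 95% against water with 0.1% formic acid ([a], acidic), 0.001 M ammonium acetate ([b], neutral) or 0.1% phosphoric acid ([c], acidic); UV read-out.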

SMILES	LogP	chromatographic logP (reversed phase HPLC column, method [a]: LC-UV, acidic range, 0.1% formic acid in water and acetonitrile as eluent (linear gradient from 10% to 95% acetonitrile))
C[Si](C)(C)CC(O)(Cn1cncc1C#N)c1ccc(OC(F)(F)F)cc1 (stereo not shown) [I-270]	3.70^[a]	–
N#Cc1cncn1CC(O)(c1ccc(Oc2ccc(Cl)cc2)cc1Cl)C1(Cl)CC1 (stereo not shown) [I-391]	3.78^[a]	–
CC(C)(C)CC(O)(Cn1cncc1C#N)c1ccccc1Br (stereo not shown) [I-308]	3.27^[a]	–
OC(Cn1cncc1F)c1ccc(Oc2ccc(C(F)(F)F)nc2)nc1C(F)(F)F (stereo not shown) [I-142]	1.98^[a]	–
N#Cc1cncn1CC(O)(c1cc(F)c(F)cc1F)C1(F)CC1 (stereo not shown) [I-521]	2.18^[a]	–
N#Cc1cncn1CC(O)(c1ccc(F)cc1Br)C1CCCCC1 (stereo not shown) [I-479]	3.46^[a]	–
N#Cc1cncn1CC(O)(CC1CCCCC1)c1ccc(F)cc1F (stereo not shown) [I-466]	3.44^[a]	–
OC(Cn1cncc1F)c1cnc(Oc2ccc(C(F)F)cc2)cc1C(F)(F)F (stereo not shown) [I-116]	2.11^[a]	–
CCC(=O)c1cncn1CC(=O)c1ccc(Oc2ccc(Br)cc2)cc1C(F)(F)F [IX-139]	–	3.71
N#Cc1cncn1CC(O)(c1ccc(Cl)cc1F)C1(Cl)CC1 (stereo not shown) [I-358]	2.57^[a]	–
COC(Cn1cncc1C#N)c1ccc(Oc2ccc(C(F)(F)F)cc2)cc1C(F)(F)F (stereo not shown) [I-67]	4.27^[a]	–
CC(O)(Cn1cncc1Cl)c1ccc(Oc2ccc(Cl)cn2)cc1Cl (stereo not shown) [I-181]	2.28^[a]	–
Cc1ccc(C(O)(Cn2cncc2C#N)C2(Cl)CC2)c(Cl)c1 (stereo not shown) [I-331]	2.58^[a]	–
OC(Cn1cncc1Cl)c1ccc(Oc2ccc(Cl)nc2)cc1Cl (stereo not shown) [I-42]	1.86^[a]	–
N#Cc1cncn1CC(O)c1ccc(Oc2ccc(Cl)cc2)cc1Br (stereo not shown) [I-59]	3.21^[a]	–
CC(C)(C)C(O)(Cn1cncc1C#N)c1cc(Cl)c(Cl)c(Cl)c1 (stereo not shown) [I-546]	3.59^[a]	–
N#Cc1cncn1CC(O)(c1cc(F)cc(Cl)c1F)C1(F)CC1 (stereo not shown) [I-613]	2.29^[a]	–
CCc1cc(Cl)ccc1C(O)(Cn1cncc1C#N)C1(Cl)CC1 (stereo not shown) [I-335]	3.00^[a]	–
N#Cc1cncn1CC(O)(c1c(F)ccc(F)c1F)C1(Cl)CC1 (stereo not shown) [I-615]	2.23^[a]	–

SMILES	LogP	chromatographic logP (reversed phase HPLC column, method [a]: LC-UV, acidic range, 0.1% formic acid in water and acetonitrile as eluent (linear gradient from 10% to 95% acetonitrile))
OC(Cn1cncc1Cl)c1ccc(Oc2ccc(C(F)(F)F)cc2)cc1 (stereo not shown) [I-13]	2.37^[a]	–
CC(C)(C)CC(O)(Cn1cncc1C#N)c1ccccc1 (stereo not shown) [I-242]	2.77^[a]	–
N#Cc1cncn1CC(O)c1ccc(Oc2ccccc2)cc1Cl (stereo not shown) [I-76]	2.70^[a]	–
CC(C)(C)CC(O)(Cn1cncc1C#N)c1ccccc1Cl (stereo not shown) [I-309]	3.17^[a]	–
CC(C)CCCC(O)(Cn1cncc1C#N)C1(Cl)CC1 (stereo not shown) [I-599]	3.33^[a]	–
N#Cc1cncn1CC(O)(c1cc(Br)c(F)cc1F)C1(Cl)CC1 (stereo not shown) [I-582]	2.66^[a]	–
OC(Cn1cncc1F)c1ccc(Oc2ccc(Cl)cc2)cc1C(F)(F)F (stereo not shown) [I-98]	2.39^[a]	–
CC(O)(Cn1cncc1C#N)c1ccc(Oc2ccc(Cl)cc2)cc1F (stereo not shown) [I-188]	3.20^[a]	–
CCC(C)C(O)(Cn1cncc1C#N)c1ccc(Cl)cc1 (single isomer, unassigned) [I-325]	2.73^[a]	–
C[Si](C)(C)CC(O)(Cn1cncc1C#N)c1ccc(F)cc1 (stereo not shown) [I-227]	3.05^[a]	–
C#CC(O)(Cn1cncc1C#N)C1(Cl)CC1 (stereo not shown) [I-670]	1.36^[a]	–
N#Cc1cncn1CC(O)c1ccc(Oc2ccc(Cl)cn2)cc1Cl (stereo not shown) [I-69]	2.54 ^[a]	–
CC(=O)OC(Cn1cncc1C#N)c1ccc(Oc2ccc(Cl)cc2)cc1C(F)(F)F (stereo not shown) [I-86]	3.7^8[a]	–
N#Cc1cncn1CC(O)c1ccc(Oc2ccc(Br)cc2)cc1F (stereo not shown) [I-48]	3.04^[a]	–
CC(C)C(O)(Cn1cncc1C#N)c1ccc(F)cc1F (stereo not shown) [I-419]	2.35^[a]	–
OC(Cn1cncc1F)c1cnc(Oc2ccc(OC(F)(F)F)cc2)cc1C(F)(F)F (stereo not shown) [I-121]	2.42^[a]	–
CCCCC(O)(Cn1cncc1C#N)c1ccc(F)cc1 (stereo not shown) [I-228]	2.47^[a]	–
Cc1ccc(Oc2ccc(C(C)(O)Cn3cncc3Cl)c(Cl)c2)cc1 (stereo not shown) [I-156]	3.13^[a]	–
